Experimental data taken from patent US11202773B2, “Locally bioavailable drugs” (UNIVERSITY OF HOUSTON SYSTEM, priority 2015, dated 2021).

Conditions: rat, in vivo, po, 20 mg/kg
Method: The drugs were dispersed in ORA-PLUS® suspension vehicle (from Paddock Laboratories, Minneapolis, Minn.) and administrated to SD rats by oral gavage. The blood samples were collected from the tail tips at different time points.
Therefore, 20 mg/kg 6a1 was administered in suspension vehicle to the proximal colon of SD rats via a catheter reaching approximately 8 cm deep into the anus.

Peak blood concentration: 1.69 µM
SMILES: Cc1ccc(-c2cc(COc3ccc(O)cc3)nn2-c2ccc(S(N)(=O)=O)cc2)cc1 [Compound 6a3]
